Source: paper PMC3549521, “Carbocyclic Analogues of Inosine-5’-Monophosphate: Synthesis and Biological Activity” (Acta Naturae, 2012)

Experiments:
[1] = target: T1, human type II inosine-5′-monophosphate dehydrogenase (IMPDH II) (Homo sapiens, UniProt P12268); assay: recombinant enzyme assay, NADH formation at […] nm; positive control; format: biochemical
T1 construct: gene IMPDH2; human recombinant IMPDH II

[2] = target: T1, human type II inosine-5′-monophosphate dehydrogenase (IMPDH II); assay: recombinant enzyme assay, NADH formation at […] nm, […] IMP and […] NAD; format: biochemical

T1 sequence (P12268 2-514): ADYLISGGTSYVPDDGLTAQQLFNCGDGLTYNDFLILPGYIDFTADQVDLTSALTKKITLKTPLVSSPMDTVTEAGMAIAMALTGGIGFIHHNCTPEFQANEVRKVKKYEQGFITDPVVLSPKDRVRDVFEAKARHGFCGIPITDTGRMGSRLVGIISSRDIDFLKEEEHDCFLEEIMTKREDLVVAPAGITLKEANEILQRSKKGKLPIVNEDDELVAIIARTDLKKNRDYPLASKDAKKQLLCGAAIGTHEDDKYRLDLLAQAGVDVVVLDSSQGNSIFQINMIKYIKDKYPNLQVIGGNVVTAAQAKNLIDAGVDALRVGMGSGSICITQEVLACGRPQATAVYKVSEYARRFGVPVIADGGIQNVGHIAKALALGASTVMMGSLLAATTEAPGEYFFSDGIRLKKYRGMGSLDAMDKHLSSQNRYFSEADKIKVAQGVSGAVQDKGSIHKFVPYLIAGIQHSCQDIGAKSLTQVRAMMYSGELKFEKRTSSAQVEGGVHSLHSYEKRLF

NC(=O)c1ncn([C@@H]2O[C@H](COP(=O)(O)O)[C@@H](O)[C@H]2O)n1 [Ribavirin monophosphate]
IC50 [1]: 2000 nM

O=c1[nH]cnc2c1ncn2C1C=CC(OCP(=O)(O)O)C1 (stereo not drawn) [compound 1, 9-(4’-Phosphonomethoxy-2’-cyclopenten-1’-yl)hypoxanthine]
Ki [2]: 474 µM

O=c1[nH]cnc2c1ncn2C1CC(OCP(=O)(O)O)C(O)C1O (stereo not drawn) [compound 2, 9-(4’-phosphonomethoxy-2’,3’-dihydroxycyclopent-1’-yl)hypoxanthine]
Ki [2]: 975 µM
